Test: PK studies of ITE in male nude mice (single dosing)
Type: in vivo
Conditions: for AUC / half-life: male, nude, mouse, plasma
Procedure: Male nude mice were also used in PK (pharmacokinetic) studies. For i.v. injection, ITE at 1 mg/kg b.w. was administered with DMSO as vehicle via tail vein. For i.p. Injection, ITE at 10, 40, and 80 mg/kg b.w. was delivered with DMSO via lower left abdominal quadrant. In p.o. injection, ITE at 40 and 80 mg/kg b.w. were administered with a vehicle of Labrasol:PEG 400 (2:8, v/v) via oral gavage. Every 15 mice were given a single injection at each dosing level and every 3 of the dosed mice were used to collect blood sample at each time point (0, 0.083, 0.25, 0.5, 1, 2, 4, 8, 24 hr.). Animals were rotated to be sampled twice each but the duration between the two sampling times was at least 110 min. The animal was anesthetized under Isoflurane and restrained manually. Approximately 150 μl of whole blood at each time point is collected (via retro-orbital puncture) into a K2-EDTA tube. Blood samples were put on ice and processed to plasma (4,000 g, 5 min, 4° C.) within 15 min post sampling. Plasma samples were stored at −80° C. until analysis. An aliquot of 20 μl plasma sample was added with 20 μl of an internal standard (Glipizide, 500 ng/ml in ΔCN, for extraction efficiency) to 120 μl of ΔCN (acetonitrile). The mixture was vortexed at 1,500 rpm for 2 min. and then centrifuged at 12,000 rpm for 5 min. Five (5) μl of the supernatant was injected into an LC-MS/MS system (API 4000, Foster City, Calif., USA). A Gemini-C18 column (2.0×50 mm, 5 μm) was used and the LC (liquid chromatography) was run at a flow rate of 0.45 ml/min. with the following program: where Pump A was for 1 mM NH4OAc (ammonium acetate) in water plus 0.025% FA (formic acid) whereas Pump B for 1 mM NH4OAC in acetonitrile plus 0.025% FA. The negative ionization process of the mass spectrometry was operated at an APCI (Atmospheric Pressure Chemical Ionization) mode while the detection at a MRM (Multiple Reaction Monitoring) mode. ITE was identified by recognizing an LC retention time of 2.5 min. and two mass peaks at 285.0 (before collision) and 142.0 m/z (after collision) while the internal standard of 2.35 min. and two mass peaks at 444.3 (before collision) and 319.3 m/z (after collision). ITE was quantified by a standard curve generated every time by a series of known quantities of ITE running through both the extraction/precipitation process after mixing with mouse plasma and the LC-MS/MS system. The WinNonlin V5.2 statistics software (Pharsight Corporation, California, USA) was used to generate PK parameters such as Cmax, Tmax, T1/2, and AUC (Area under Curve) etc. using a non-compartmental model. Results

[1] = iv, 1 mg/kg b.w. bolus i.v. in DMSO

COC(=O)c1csc(C(=O)c2c[nH]c3ccccc23)n1 [ITE, 2-(1′H-indole-3′-carbonyl)-thiazole-4-carboxylic acid methyl ester]
efficiency of absorption compared with i.v. injection (i.p. injection in DMSO): below 10%
AUC (ip, 10 mg/kg b.w. i.p. in DMSO): 197 ng·h/mL
half-life (ip, 10 mg/kg b.w. i.p. in DMSO): 1.13 h
AUC (ip, 40 mg/kg b.w. i.p. in DMSO): 332 ng·h/mL
half-life (ip, 40 mg/kg b.w. i.p. in DMSO): 1.61 h
AUC (ip, 80 mg/kg b.w. i.p. in DMSO): 499 ng·h/mL
half-life (ip, 80 mg/kg b.w. i.p. in DMSO): 5.17 h
AUC [1]: 256 ng·h/mL
half-life [1]: 0.1 h
AUC (po, 40 mg/kg b.w. p.o. in Labrasol:PEG 400 (2:8, v/v)): 107 ng·h/mL
AUC (po, 80 mg/kg b.w. p.o. in Labrasol:PEG 400 (2:8, v/v)): 97 ng·h/mL
absorption efficiency (p.o. in Labrasol:PEG 400 (2:8, v/v)): around 1%
